Reference: patent US11873405B2, “High oleic oil compositions and uses thereof” (priority 2021, dated 2024)

Experiments:
[1] = test system: E06 mutant (Strain K) microalgae cells; test: Selection for tolerance to membrane stress: growth (OD750) in 3-day lipid production culture, 96-deep well block; assay type: cell-based, Prototheca wickerhamii; conditions: fixed 1.6 μM triparanol plus increasing phenethyl alcohol, FIG. 6
Procedure: The mutant strain, Strain 0_E06 (Strain E06), while not phenotypically stable, consistently achieved higher oleate levels than the mutant lineage that gave rise to Strain 1 (TABLE 3). As such, this mutant lineage was selected for further rounds of classical strain improvement, and designated as “Strain K”. Following overnight growth in M21+40 g/L glucose seed media to mid-log phase, the E06 mutant was exposed to 270 mM ethyl methanesulfonate (EMS) in 0.1 M potassium phosphate buffer (pH 7.0) for 45 min at room temperature in dark and with periodic gentle agitation. Mutagenesis was terminated with the addition of a sodium thiosulfate solution to final concentration of 3% (w/v). In parallel, a mock-mutagenized control cell population was taken through all the same manipulations, except for exposure to EMS. Cells were collected using 0.2-micron filter sterilization units, washed extensively with water, and then washed with and into 5 mL M20+5 g/L glucose pre-seed media. Pre-seed cultures were incubated at 28° C./900 rpm/80% humidity for 72 h. An 8% (v/v) inoculum from each culture was then used to initiate a seed culture in 10 mL of standard M21+5 g/L glucose seed media in 50-mL bioreactor tubes. […] Growth was then assessed by measuring optical density at 750 nm wavelength (OD750) in a Molecular Devices Spectramax M5 plate reader. […]

[2] = test system: E06 mutant (Strain K) microalgae cells; test: Selection for tolerance to triparanol: growth in 3-day lipid production culture, 96-deep well block; assay type: cell-based, Prototheca wickerhamii; conditions: cells exposed to increasing amounts of triparanol, FIG. 7
Procedure: The cryo-vials were thawed and used to initiate a 10 mL pre-seed culture in bioreactor tube, which was incubated for 72 h at 28° C./200 rpm. Two rounds of selection and enrichment with increasing amounts of triparanol were conducted following the strategy outlined in FIG. 3. […] This population was collected on sterile filters, diluted, and spread on solid media. The resulting clonal isolates were screened in our automated 96-well block-based lipid production and glucose consumption assay. A number of strains with increased oleate levels were identified among the mutant clones (TABLE 5). Strains validated in repeat assays were then assessed for phenotypic stability. Stable strains were cryo-preserved.
Cells were exposed to increasing amounts of triparanol during a 3-day lipid production culture in a 96-deep well block. Significant inhibition of growth occurred at […] concentrations >2 μM. Rare surviving cells presumed to be in wells where 50% inhibition was observed were recovered by sterile filtration, washed with and collected from the filter in M20+glucose pre-seed media. The cultures were then used to initiate another round of selection. By the third round of selection (right panels), a subtle difference in the growth of the mutant population compared to the mock-mutagenized controls was observed. […]

OCCc1ccccc1 [phenethyl alcohol]
concentrations at which significant inhibition of growth occurred [1]: > 3.6 mM
concentrations at which significant inhibition of growth occurred [2]: > 2 µM
